ChEMBL document CHEMBL3352773, “Synthesis and evaluation of the 2,4-diaminoquinazoline series as anti-tubercular agents” (Bioorg Med Chem, 2014)
≈ marks a conversion by molar mass, not a printed value.

Assays:
Type in all cases: functional
Details in all cases: 120 h
[1] = test system: Mycobacterium tuberculosis; test: Antituberculosis activity against Mycobacterium tuberculosis H37Rv assessed as complete growth inhibition at 20 uM after 5 days
[2] = test system: Mycobacterium tuberculosis; test: Antituberculosis activity against Mycobacterium tuberculosis H37Rv assessed as complete growth inhibition after 5 days
[3] = test system: Mycobacterium tuberculosis; test: Antituberculosis activity against Mycobacterium tuberculosis H37Rv assessed as complete growth inhibition after 5 days using solid media by serial proportion method
[4] = test system: Mycobacterium tuberculosis; test: Antituberculosis activity against Mycobacterium tuberculosis H37Rv assessed as complete growth inhibition after 5 days using liquid media

Structure (SMILES) | inhibition at 20 µM [1] | MIC99 [2] | also measured
Fc1ccc(CNc2nc(N3CCCCC3)nc3ccccc23)cc1F | 96% | – | –
Cn1ccc2c(NCc3ccc(F)cc3)nc(N3CCCCC3)nc21 | < 30% | – | –
Fc1ccc(CSc2nc(N3CCCCC3)nc3ccccc23)cc1 | < 30% | 282 µM (≈ 99.7 µg/mL) | –
Fc1ccc(CCc2nc(N3CCCCC3)nc3ccccc23)cc1 | < 30% | – | –
O=C(O)C(Nc1cc(N2CCCCC2)nc2ccccc12)c1ccc(F)cc1 (stereo not given) | < 30% | – | –
CC1CC(C)CN(c2nc(NCc3ccc(F)cc3)c3ccccc3n2)C1 (stereo not given) | < 30% | – | –
Fc1ccc(CNc2nc(N3CCCCC3)nc3cccc(Cl)c23)cc1 | < 30% | – | –
Clc1ccc(CNc2nc(N3CCCCC3)nc3ccccc23)cc1Cl | 98% | – | –
Fc1ccc(CNc2nc(N3CCCCC3)nc3sccc23)cc1 | – | 73 µM (≈ 25 µg/mL) | –
Fc1ccc(CNc2nc(N3CCCCC3)nc3ccsc23)cc1 | < 30% | 292 µM (≈ 100 µg/mL) | –
Fc1ccc(CNc2nc(N3CCCCC3)nc3[nH]cnc23)cc1 | < 30% | – | –
Cc1nc(N2CCCCC2)nc(NCc2ccc(F)cc2)c1C | < 30% | – | –
Cc1ccc2nc(N3CCCCC3)nc(NCc3ccc(F)cc3)c2c1 | 99% | – | –
FC(F)(F)Oc1ccc(CNc2nc(N3CCCCC3)nc3ccccc23)cc1 | 95% | – | –
OCC1CCN(c2nc(NCc3ccc(F)cc3)c3ccccc3n2)CC1 | < 30% | – | –
COc1cccc2c(NCc3ccc(F)cc3)nc(N3CCCCC3)nc12 | 83% | – | –
CNc1nc(N2CCCCC2)nc2ccccc12 | < 30% | 206 µM (≈ 49.9 µg/mL) | –
COc1cc2nc(N3CCCCC3)nc(NCc3ccc(F)cc3)c2cc1OC | 92% | 25 µM (≈ 9.91 µg/mL) | –
Clc1ccc(Cl)c(CNc2nc(N3CCCCC3)nc3ccccc23)c1 | 97% | – | –
Fc1ccc(Nc2nc(N3CCCCC3)nc3ccccc23)cc1 | < 30% | 39 µM (≈ 12.6 µg/mL) | –
Fc1ccc(CNc2nc(N3CCCCC3)nc3[nH]ccc23)cc1 | < 30% | – | –
c1ccc2c(N3CCCCC3)nc(N3CCCCC3)nc2c1 | < 30% | – | –

Structure (SMILES) | inhibition at 20 µM [1] | MIC99 [2] | also measured
COc1ccc2nc(N3CCCCC3)nc(NCc3ccc(F)cc3)c2c1 | 97% | – | –
Fc1ccc(CNc2nc(N3CCCCC3)nc3cccnc23)cc1 | < 30% | 37 µM (≈ 12.5 µg/mL) | –
c1ccc2c(NCC3CCCCC3)nc(N3CCCCC3)nc2c1 | 99% | – | –
Cc1cnc(N2CCCCC2)nc1NCc1ccc(F)cc1 | < 30% | 83 µM (≈ 24.9 µg/mL) | –
Fc1ccc(CNc2nc(N3CCCCC3)nc3c(Cl)cccc23)cc1 | < 30% | – | –
Fc1ccc(COc2nc(N3CCCCC3)nc3ccccc23)cc1 | < 30% | 296 µM (≈ 99.9 µg/mL) | –
Fc1ccc(CNc2cc(N3CCCCC3)nc3ccccc23)cc1 | 98% | – | –
Fc1ccc(CNc2nc(N3CCCCC3)nc3ccccc23)c(F)c1 | 97% | – | –
Cn1cnc2c(NCc3ccc(F)cc3)nc(N3CCCCC3)nc21 | < 30% | – | –
Cc1nc(NCc2ccc(F)cc2)c2ccccc2n1 | < 30% | 94 µM (≈ 25.1 µg/mL) | –
Fc1cccc(CNc2nc(N3CCCCC3)nc3ccccc23)c1 | 98% | – | –
O=C(O)C1CCN(c2nc(NCc3ccc(F)cc3)c3ccccc3n2)CC1 | < 30% | – | –
O=C(O)CNC1CCN(c2nc(NCc3ccc(F)cc3)c3ccccc3n2)CC1 | < 30% | – | –
Nc1nc(NCc2ccc(F)cc2)c2ccccc2n1 | < 30% | 93 µM (≈ 25 µg/mL) | –
Fc1ccc(CNc2cc(Cc3ccccc3)nc(N3CCCCC3)n2)cc1 | 84% | 27 µM (≈ 10.2 µg/mL) | –
Fc1ccc(CNc2nc(N3CCCCC3)nc3cnccc23)cc1 | 59% | 30 µM (≈ 10.1 µg/mL) | –
CN(C)C1CCN(c2nc(NCc3ccc(F)cc3)c3ccccc3n2)CC1 | < 30% | – | –
Cc1cc(NCc2ccc(F)cc2)nc(N2CCCCC2)n1 | < 30% | 83 µM (≈ 24.9 µg/mL) | –
Fc1ccc(CNc2nc(C3CCCCC3)nc3ccccc23)cc1 | 47% | 15 µM (≈ 5.03 µg/mL) | –
c1ccc2nc(N3CCCCC3)ncc2c1 | < 30% | 469 µM (≈ 100 µg/mL) | –
Fc1ccc(CNc2cc(N3CCCCC3)nc3ncnn23)cc1 | < 30% | – | –
COc1ccc(CNc2nc(N3CCCCC3)nc3ccccc23)cc1 | 97% | – | –

Structure (SMILES) | inhibition at 20 µM [1] | MIC99 [2] | also measured
CO[C@H]1/C=C/O[C@@]2(C)Oc3c(C)c(O)c4c(O)c(c(/C=N/N5CCN(C)CC5)c(O)c4c3C2=O)NC(=O)/C(C)=C\C=C\[C@H](C)[C@H](O)[C@@H](C)[C@@H](O)[C@@H](C)[C@H](OC(C)=O)[C@@H]1C [RIFAMPIN] | 100% | – | MIC99 [3]: 0.013 µM (≈ 0.0107 µg/mL); MIC99 [4]: 4 nM (≈ 0.00329 µg/mL)
COc1ccc(CNc2nc(N3CCCCC3)nc3ccccc23)cc1Cl | 98% | – | –
Fc1ccc(CNc2nc(CN3CCCCC3)nc3ccccc23)cc1 | < 30% | 29 µM (≈ 10.2 µg/mL) | –
OC1CCN(c2nc(NCc3ccc(F)cc3)c3ccccc3n2)CC1 | < 30% | – | –
NC1CCN(c2nc(NCc3ccc(F)cc3)c3ccccc3n2)CC1 | < 30% | – | –
Fc1ccc2c(c1)CCN(c1nc(N3CCCCC3)nc3ccccc13)C2 | 94% | – | –
OCC(Nc1cc(N2CCCCC2)nc2ccccc12)c1ccc(F)cc1 (stereo not given) | 55% | – | –
Fc1ccccc1CNc1nc(N2CCCCC2)nc2ccccc12 | 97% | – | –
Cc1ccc(CNc2nc(N3CCCCC3)nc3ccccc23)cc1 | 98% | – | –
CNc1nc(NCc2ccc(F)cc2)c2ccccc2n1 | 44% | 35 µM (≈ 9.88 µg/mL) | –
Clc1ccc(CNc2nc(N3CCCCC3)nc3ccccc23)cc1 | 99% | – | –
OCCN(CCO)c1nc(NCc2ccc(F)cc2)c2ccccc2n1 | < 30% | – | –
CC(C)CNc1nc(N2CCCCC2)nc2ccccc12 | 37% | 25 µM (≈ 7.11 µg/mL) | –
Fc1ccc(CNc2nc(N3CCCCC3)nc3ncccc23)cc1 | 37% | 74 µM (≈ 25 µg/mL) | –
Nc1ccc(CNc2nc(N3CCCCC3)nc3ccccc23)cc1 | < 30% | – | –
Fc1ccc(CNc2nc(N3CCNCC3)nc3ccccc23)cc1 | < 30% | 148 µM (≈ 49.9 µg/mL) | –
Nc1ccc(N2CCN(c3nc(NCc4ccc(F)cc4)c4ccccc4n3)CC2)cc1 | 94% | – | –
CN(C)c1nc(NCc2ccc(F)cc2)c2ccccc2n1 | 40% | 34 µM (≈ 10.1 µg/mL) | –
c1ccc2c(CNc3nc(N4CCCCC4)nc4ccccc34)cccc2c1 | 97% | – | –
Fc1ccc(CNc2nc(N3CCCCC3)nc3ccc(Cl)cc23)cc1 | 49% | – | –
Fc1ccc(CNc2nc(N3CCCCC3)ncc2Cc2ccccc2)cc1 | 68% | 26 µM (≈ 9.79 µg/mL) | –
Cc1cccc(CNc2nc(N3CCCCC3)nc3ccccc23)c1 | 99% | – | –

Structure (SMILES) | inhibition at 20 µM [1] | MIC99 [2] | also measured
O=C(O)CC1CCCCN1c1nc(NCc2ccc(F)cc2)c2ccccc2n1 (stereo not given) | < 30% | – | –
CNC1CCN(c2nc(NCc3ccc(F)cc3)c3ccccc3n2)CC1 | 33% | – | –
Fc1ccc(CNc2nc(N3Cc4ccccc4C3)nc3ccccc23)cc1 | 78% | – | –
Fc1ccc(CNc2cc(N3CCCCC3)nc3ccnn23)cc1 | < 30% | – | –
Ic1cccc(CNc2nc(N3CCCCC3)nc3ccccc23)c1 | 98% | – | –
FC(F)(F)c1ccc(CCNc2nc(N3CCCCC3)nc3ccccc23)cc1 | 97% | 5.7 µM (≈ 2.28 µg/mL) | –
COc1ccc2c(NCc3ccc(F)cc3)nc(N3CCCCC3)nc2c1 | 74% | – | –
Fc1ccc(CNc2ncnc3ccccc23)cc1 | < 30% | 99 µM (≈ 25.1 µg/mL) | –
Fc1ccc(CNc2nc(N3CCCCC3)nc3cccc(F)c23)cc1 | < 30% | – | –
Fc1ccc(CNc2nc(-c3ccccc3)nc3ccccc23)cc1 | < 30% | 76 µM (≈ 25 µg/mL) | –
Fc1ccc(CNc2nc(N3CCCCC3)nc3ccccc23)cc1 | 97% | 7.4 µM (≈ 2.49 µg/mL) | –
Clc1ccc(CNc2nc(N3CCCCC3)nc3ccccc23)c(Cl)c1 | 98% | – | –
Fc1ccc(CNc2nc(N3CCCCC3)nc3cc(Cl)ccc23)cc1 | 51% | – | –
Fc1ccc(CNc2nc(N3CCCC3)nc3ccccc23)cc1 | 97% | 31 µM (≈ 9.99 µg/mL) | –
Fc1ccc(CNc2nc(C(F)(F)F)nc3ccccc23)cc1 | < 30% | – | –
c1ccc(CNc2nc(N3CCCCC3)nc3ccccc23)cc1 | 96% | 9.2 µM (≈ 2.93 µg/mL) | –
O=[N+]([O-])c1cccc2c(NCc3ccc(F)cc3)nc(N3CCCCC3)nc12 | < 30% | – | –
Cc1cccc2nc(N3CCCCC3)nc(NCc3ccc(F)cc3)c12 | 98% | – | –
CC1CCN(c2nc(NCc3ccc(F)cc3)c3ccccc3n2)CC1 | 97% | – | –
